Source: ChEMBL document CHEMBL4616634, “4β-Hydroxywithanolide E from Goldenberry (Whole Fruits of Physalis peruviana L.) as a Promising Agent against Chronic Obstructive Pulmonary Disease” (J Nat Prod, 2020)
The source made the active and inactive calls. The rule behind the calls is not given here.

Assays:
[1] = target: T1, Nuclear factor erythroid 2-related factor 2 (Homo sapiens) (UniProt Q16236); experiment: Activation of Nrf2 in human BEAS2B cells assessed as increase in NQO1 protein expression incubated for 12 hrs by immunoblot analysis; assay type: cell-based
T1 sequence (whole entry): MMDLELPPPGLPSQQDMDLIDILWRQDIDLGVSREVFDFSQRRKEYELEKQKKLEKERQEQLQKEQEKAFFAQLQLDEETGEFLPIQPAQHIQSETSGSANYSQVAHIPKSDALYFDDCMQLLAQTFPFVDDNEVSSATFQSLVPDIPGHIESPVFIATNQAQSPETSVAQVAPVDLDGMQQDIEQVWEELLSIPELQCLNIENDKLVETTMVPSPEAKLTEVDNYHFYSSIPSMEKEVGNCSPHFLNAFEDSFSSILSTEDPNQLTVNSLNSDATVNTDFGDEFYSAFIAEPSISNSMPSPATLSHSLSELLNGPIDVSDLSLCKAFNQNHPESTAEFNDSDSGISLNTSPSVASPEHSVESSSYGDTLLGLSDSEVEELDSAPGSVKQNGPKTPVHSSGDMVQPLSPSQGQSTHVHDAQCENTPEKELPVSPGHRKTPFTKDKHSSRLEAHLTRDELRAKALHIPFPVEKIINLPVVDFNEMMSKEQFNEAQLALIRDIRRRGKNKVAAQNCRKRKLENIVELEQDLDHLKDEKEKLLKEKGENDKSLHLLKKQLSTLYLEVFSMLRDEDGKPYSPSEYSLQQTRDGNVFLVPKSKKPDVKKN

Mus musculus [2] = experiment: Antioxidant Activity in C57BL/6 mouse model of CS-induced pulmonary injury assessed as decrease in MDA level in serum at 2 to 4 mg/kg, ip for 5 days; assay type: functional, organism-based
Mus musculus [3] = experiment: Antiinflammatory activity in C57BL/6 mouse model of CS-induced pulmonary injury assessed as reduction in IL-6 protein expression in lungs at 2 to 4 mg/kg, ip for 5 days by ELISA; assay type: functional, organism-based
Mus musculus [4] = experiment: Antiinflammatory activity in C57BL/6 mouse model of CS-induced pulmonary injury assessed as increase in Nrf2 protein expression in lungs at 2 to 4 mg/kg, ip for 5 days by immunoblot analysis; assay type: functional, organism-based
[5] = target: T1, Nuclear factor erythroid 2-related factor 2 (Homo sapiens); experiment: Activation of Nrf2 in human BEAS2B cells assessed as increase in GCLM mRNA expression at 0.5 to 2 uM incubated for 24 hrs by qRT-PCR analysis; assay type: cell-based
Mus musculus [6] = experiment: Antiinflammatory activity in C57BL/6 mouse model of CS-induced pulmonary injury assessed as reduction in distinct infiltration of leukocytes in lungs at 2 to 4 mg/kg, ip for 5 days by hematoxylin and eosin staining based fluorescence microscopic analysis; assay type: functional, organism-based
BEAS-2B = experiment: Antioxidant activity in human BEAS2B cells assessed as increase in GSH level at 2 uM incubated for 1 to 12 hrs; assay type: functional, cell-based
RAW264.7 [7] = experiment: Inhibition of LPS-induced COX2 protein expression in mouse RAW264.7 cells at 0.5 to 4 uM preincubated for 1 hr followed by LPS-stimulation and measured after 16 hrs by immunoblot analysis; assay type: functional, cell-based
[8] = target: T1, Nuclear factor erythroid 2-related factor 2 (Homo sapiens); experiment: Activation of Nrf2 in human BEAS2B cells assessed as increase in Nrf2 translocation in nucleus at 1 uM incubated for 6 hrs by DAPI staining based fluorescence microscopic analysis; assay type: cell-based
RAW264.7 [9] = experiment: Inhibition of LPS-induced NFkappaB activation in mouse RAW264.7 cells assessed as increase in IKBalpha protein expression at 0.5 to 4 uM pre-incubated for 1 hr followed by LPS-stimulation and measured after 2 hrs by immunoblot analysis; assay type: cell-based
[10] = target: Keap1/Nrf2 (Homo sapiens) (UniProt Q16236+Q14145); experiment: Inhibition of Nrf2-KEAP1 (unknown origin) transfected in BEAS2B cells assessed as decrease in ratio of Nrf2 to Keap1 at 5 uM incubated for 24 hrs by immunoblot analysis; assay type: cell-based
Mus musculus [11] = experiment: Antiinflammatory activity in C57BL/6 mouse model of CS-induced pulmonary injury assessed as reduction in thickening of the alveolar septa in lungs at 2 to 4 mg/kg, ip for 5 days by hematoxylin and eosin staining based fluorescence microscopic analysis; assay type: functional, organism-based
[12] = target: T1, Nuclear factor erythroid 2-related factor 2 (Homo sapiens); experiment: Activation of Nrf2 in human BEAS2B cells harboring wild type Keap1 assessed as increase in Nrf2 protein expression at 2 uM after12 hrs in presence of Keap1-siRNA by immunoblot analysis; assay type: cell-based
Danio rerio = organism: Danio rerio; experiment: Inhibition of LPS-induced ROS generation in AB zebra fish oxidative damage model incubated for 24 hrs by DCFH-DA staining based fluorescence assay; assay type: functional, organism-based
[13] = target: T1, Nuclear factor erythroid 2-related factor 2 (Homo sapiens); experiment: Activation of Nrf2 in human BEAS2B cells assessed as increase in luciferase activity at 0.25 to 2 uM incubated for 18 hrs by dual luciferase reporter gene assay; assay type: cell-based
RAW264.7 [14] = experiment: Inhibition of LPS-induced TNFalpha protein expression in mouse RAW264.7 cells at 0.5 to 4 uM preincubated for 1 hr followed by LPS-stimulation and measured after 16 hrs by immunoblot analysis; assay type: functional, cell-based
[15] = target: T1, Nuclear factor erythroid 2-related factor 2 (Homo sapiens); experiment: Activation of Nrf2 in human BEAS2B cells assessed as increase in Nrf2 protein level incubated for 12 hrs by immunoblot analysis; assay type: cell-based
[16] = target: T1, Nuclear factor erythroid 2-related factor 2 (Homo sapiens); experiment: Stabilization of Nrf2 in human BEAS2B cells assessed as protein half life at 1 uM after 8 hrs in presence of CHX by immunoblot analysis (reference value: 12.9 min); assay type: cell-based
RAW264.7 [17] = experiment: Inhibition of LPS-induced IL-1beta mRNA expression in mouse RAW264.7 cells at 0.5 to 4 uM preincubated for 1 hr followed by LPS-stimulation and measured after 6 hrs by qRT-PCR analysis; assay type: functional, cell-based
[18] = target: T1, Nuclear factor erythroid 2-related factor 2 (Homo sapiens); experiment: Activation of Nrf2 in human BEAS2B cells assessed as increase in Nrf2 accumulation in nucleus at 1 uM incubated for 8 hrs by immunoblot analysis; assay type: cell-based
RAW264.7 [19] = experiment: Inhibition of LPS-induced TNFalpha mRNA expression in mouse RAW264.7 cells at 0.5 to 4 uM preincubated for 1 hr followed by LPS-stimulation and measured after 6 hrs by qRT-PCR analysis; assay type: functional, cell-based
[20] = target: T1, Nuclear factor erythroid 2-related factor 2 (Homo sapiens); experiment: Activation of Nrf2 in human BEAS2B cells assessed as increase in NQO1 mRNA expression at 0.5 to 2 uM incubated for 24 hrs by qRT-PCR analysis; assay type: cell-based
Mus musculus [21] = experiment: Antioxidant Activity in C57BL/6 mouse model of CS-induced pulmonary injury assessed as increase in SOD level in lungs at 2 to 4 mg/kg, ip for 5 days; assay type: functional, organism-based
RAW264.7 [22] = experiment: Inhibition of LPS-induced iNOS mRNA expression in mouse RAW264.7 cells at 0.5 to 4 uM preincubated for 1 hr followed by LPS-stimulation and measured after 6 hrs by qRT-PCR analysis; assay type: functional, cell-based
RAW264.7 [23] = experiment: Inhibition of LPS-induced IL-1beta protein expression in mouse RAW264.7 cells at 0.5 to 4 uM preincubated for 1 hr followed by LPS-stimulation and measured after 16 hrs by immunoblot analysis; assay type: functional, cell-based
[24] = target: T1, Nuclear factor erythroid 2-related factor 2 (Homo sapiens); experiment: Activation of Nrf2 in human BEAS2B cells assessed as increase in Nrf2 protein expression at 1 uM incubated for 24 hrs by immunoblot analysis; assay type: cell-based
[25] = target: T1, Nuclear factor erythroid 2-related factor 2 (Homo sapiens); experiment: Activation of Nrf2 in human BEAS2B cells assessed as increase in GCLM protein expression incubated for 12 hrs by immunoblot analysis; assay type: cell-based

Sequence of Keap1/Nrf2 (Homo sapiens) (Q14145 whole entry, looked up, one chain of several): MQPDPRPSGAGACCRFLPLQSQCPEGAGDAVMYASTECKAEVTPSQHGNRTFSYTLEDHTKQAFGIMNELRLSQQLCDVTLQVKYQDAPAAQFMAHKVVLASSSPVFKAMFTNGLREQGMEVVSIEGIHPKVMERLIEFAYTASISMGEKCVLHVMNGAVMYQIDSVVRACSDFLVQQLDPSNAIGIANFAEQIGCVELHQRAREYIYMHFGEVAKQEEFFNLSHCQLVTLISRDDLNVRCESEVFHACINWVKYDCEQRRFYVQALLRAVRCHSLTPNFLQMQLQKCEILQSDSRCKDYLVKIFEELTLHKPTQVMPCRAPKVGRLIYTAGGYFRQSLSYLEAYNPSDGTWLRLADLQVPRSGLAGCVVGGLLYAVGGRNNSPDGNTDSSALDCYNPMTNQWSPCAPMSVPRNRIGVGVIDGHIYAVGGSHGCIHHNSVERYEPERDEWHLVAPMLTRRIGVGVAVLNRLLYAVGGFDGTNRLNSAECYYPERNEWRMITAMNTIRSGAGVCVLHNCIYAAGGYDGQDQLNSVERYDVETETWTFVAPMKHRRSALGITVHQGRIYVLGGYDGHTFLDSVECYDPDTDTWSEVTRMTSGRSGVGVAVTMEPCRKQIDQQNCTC

Structure (SMILES): CC1=C(C)C(=O)O[C@H]([C@](C)(O)[C@]2(O)CC[C@@]3(O)[C@@H]4C[C@H]5O[C@]56[C@@H](O)C=CC(=O)[C@]6(C)[C@H]4CC[C@]23C)C1
- Activity [1]: Dose-dependent effect
- Activity (Mus musculus [2]): Active
- Activity (Mus musculus [3]): Active
- Activity (Mus musculus [4]): Active
- Activity [5]: Active
- Activity (Mus musculus [6]): Active
- Activity (BEAS-2B): Active
- inhibition (RAW264.7 [7]): Active
- Activity [8]: Active
- inhibition (RAW264.7 [9]): Active
- inhibition [10]: Active
- Activity (Mus musculus [11]): Active
- Activity [12]: Active
- inhibition (Danio rerio): Dose-dependent effect
- Activity [13]: Active
- inhibition (RAW264.7 [14]): Active
- Activity [15]: Dose-dependent effect
- T1/2 [16]: 34.3 min
- inhibition (RAW264.7 [17]): Active
- Activity [18]: Active
- inhibition (RAW264.7 [19]): Active
- Activity [20]: Active
- Activity (Mus musculus [21]): Active
- inhibition (RAW264.7 [22]): Active
- inhibition (RAW264.7 [23]): Active
- Activity [24]: inactive
- Activity [25]: Dose-dependent effect
